Measurements: the supplement of paper PMC12137928
Counter-ions that a name gives are not always drawn.

Tested on: HCT116
Conditions: 72 h
In short: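 Each well of the 1536-well plates received 250 HCT116 cells, which attached over 5 h. Luminescence was measured with CellTiter-Glo, scaled with vehicle as 0% and positive control as -100%, and pattern-corrected. A four-parameter Hill fit yielded IC50 and maximal efficacy.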

| Structure (SMILES) | IC50 cell viability (ICRF193 0 nM) [µM] | IC50 cell viability (ICRF193 200 nM) [µM] |
| --- | --- | --- |
| CCN1CCC(=C2c3ccccc3CCc3ccccc32)C1C (stereo not drawn) [Piroheptine Hydrochloride] | > 45.8 | > 45.8 |
| CCn1cc(C(=O)O)c(=O)c2cnc(N3CCCC3)nc21 [Piromidic acid] | > 45.8 | > 45.8 |
| CN1C(C(=O)Nc2ccccn2)=C(O)c2ccccc2S1(=O)=O [Piroxicam] | > 45.8 | > 45.8 |
| Clc1ccc(CCCOCCCN2CCCCC2)cc1 [Pitolisant (hydrochloride)] | > 45.8 | > 45.8 |
| CC(C)(C)C(=O)OCOC(=O)[C@@H]1N2C(=O)[C@@H](NC(=O)[C@H](N)c3ccccc3)[C@H]2SC1(C)C [Pivampicillin] | > 45.8 | > 45.8 |
| CC(C)(C)C(=O)OCOC(=O)[C@@H]1N2C(=O)[C@@H](/N=C/N3CCCCCC3)[C@H]2SC1(C)C [Pivmecillinam] | > 45.8 | > 45.8 |
| CN1CCC(=C2c3ccccc3CCc3sccc32)CC1 [Pizotifen] | > 45.8 | > 45.8 |
| c1cc(CN2CCCNCCNCCCNCC2)ccc1CN1CCCNCCNCCCNCC1 [Plerixafor hydrochloride] | > 45.8 | > 45.8 |
| NCCC(=O)[N-][C@@H](Cc1c[nH]cn1)C(=O)[O-].[Zn+2] [Polaprezinc] | > 45.8 | > 45.8 |
| CN1C(CSCC(F)(F)F)Nc2cc(Cl)c(S(N)(=O)=O)cc2S1(=O)=O (stereo not drawn) [Polythiazide] | > 45.8 | > 45.8 |
| Nc1cccc2c1C(=O)N(C1CCC(=O)NC1=O)C2=O (stereo not drawn) [Pomalidomide] | > 45.8 | > 45.8 |
| CC[C@@H]([C@H](C)O)n1ncn(-c2ccc(N3CCN(c4ccc(OC[C@@H]5CO[C@@](Cn6cncn6)(c6ccc(F)cc6F)C5)cc4)CC3)cc2)c1=O [Posaconazole] | > 45.8 | > 45.8 |
| CCCCCC[C@@H](O)C/C=C\CCCCCCCC(=O)O [Potassium ricinoleate] | > 45.8 | > 45.8 |
| C[n+]1ccccc1/C=N/O [Pralidoxime chloride] | > 45.8 | > 45.8 |
| CCCN[C@H]1CCc2nc(N)sc2C1 [Pramipexole hydrochloride] | > 45.8 | > 45.8 |
| CCCCOc1ccc(OCCCN2CCOCC2)cc1 [Pramoxine hydrochloride] | > 45.8 | > 45.8 |
| O=C(N[C@H]1N=C(c2ccccc2F)c2cccc3c2N(CC3)C1=O)c1cc2ccccc2[nH]1 [Pranazepide] | > 45.8 | > 45.8 |
| O=C(Nc1cccc2c(=O)cc(-c3nnn[nH]3)oc12)c1ccc(OCCCCc2ccccc2)cc1 [Pranlukast hydrate] | > 45.8 | > 45.8 |
| CC(C(=O)O)c1ccc2c(c1)Cc1cccnc1O2 (stereo not drawn) [Pranoprofen] | > 45.8 | > 45.8 |
| CC(=O)Oc1cc2c(s1)CCN(C(C(=O)C1CC1)c1ccccc1F)C2 (stereo not drawn) [Prasugrel] | > 45.8 | > 45.8 |
| CC[C@H](C)C(=O)O[C@H]1C[C@H](O)C=C2C=C[C@H](C)[C@H](CC[C@@H](O)C[C@@H](O)CC(=O)O)[C@H]21 [Pravastatin] | > 45.8 | > 45.8 |
| O=C(C1CCCCC1)N1CC(=O)N2CCc3ccccc3C2C1 (stereo not drawn) [Praziquantel] | > 45.8 | > 45.8 |

| Structure (SMILES) | IC50 cell viability (ICRF193 0 nM) [µM] | IC50 cell viability (ICRF193 200 nM) [µM] |
| --- | --- | --- |
| C[C@]12C=CC(=O)C=C1CC[C@@H]1[C@@H]2[C@@H](O)C[C@@]2(C)[C@H]1CC[C@]2(O)C(=O)COP(=O)(O)O [Prednisolone Phosphate (sodium salt)] | > 45.8 | > 45.8 |
| CC(=O)OCC(=O)[C@@]1(O)CC[C@H]2[C@@H]3CCC4=CC(=O)C=C[C@]4(C)[C@H]3[C@@H](O)C[C@@]21C [Prednisolone acetate] | > 45.8 | > 45.8 |
| CC(C)=CCC/C(C)=C/CC/C(C)=C/C(=O)OCC(=O)[C@@]1(O)CC[C@H]2[C@@H]3CCC4=CC(=O)C=C[C@]4(C)[C@H]3[C@@H](O)C[C@@]21C [Prednisolone farnesylate] | > 45.8 | > 45.8 |
| C[C@]12C=CC(=O)C=C1CC[C@@H]1[C@@H]2[C@@H](O)C[C@@]2(C)[C@H]1CC[C@]2(O)C(=O)CO [Prednisolone] | > 45.8 | > 45.8 |
| C[C@]12C=CC(=O)C=C1CC[C@@H]1[C@@H]2C(=O)C[C@@]2(C)[C@H]1CC[C@]2(O)C(=O)CO [Prednisone] | > 45.8 | > 45.8 |
| C[C@]12C=CC(=O)C=C1CC[C@@H]1[C@@H]2[C@@H](O)C[C@@]2(C)[C@H]1CC[C@]2(O)C(=O)COC(=O)c1cccc(S(=O)(=O)O)c1 [Predocol] | > 45.8 | > 45.8 |
| C[C@H](O)[C@H]1CC[C@H]2[C@@H]3CC[C@@H]4C[C@H](O)CC[C@]4(C)[C@H]3CC[C@]12C [Pregnandiol] | > 45.8 | > 45.8 |
| CC(=O)O[C@H]1CC[C@@]2(C)C(=CC[C@H]3[C@@H]4CC[C@H](C(C)=O)[C@@]4(C)CC[C@@H]32)C1 [Pregnenolone acetate] | > 45.8 | > 45.8 |
| CC(=O)[C@H]1CC[C@H]2[C@@H]3CC=C4C[C@@H](O)CC[C@]4(C)[C@H]3CC[C@]12C [Pregnenolone] | > 45.8 | > 45.8 |
| OC(CCN1CCCCC1)(c1ccccc1)c1ccccc1 [Pridinol] | > 45.8 | > 45.8 |
| CC[N+]1(CC)CCC(=C(c2ccccc2)c2ccccc2)C1C (stereo not drawn) [Prifinium bromide] | > 45.8 | > 45.8 |
| CCCNC(C)C(=O)Nc1ccccc1C (stereo not drawn) [Prilocaine hydrochloride] | > 45.8 | > 45.8 |
| CCC1(c2ccccc2)C(=O)NCNC1=O [Primidone] | > 45.8 | > 45.8 |
| CCCN(CCC)S(=O)(=O)c1ccc(C(=O)O)cc1 [Probenecid] | > 45.8 | > 45.8 |
| CC(C)(Sc1cc(C(C)(C)C)c(O)c(C(C)(C)C)c1)Sc1cc(C(C)(C)C)c(O)c(C(C)(C)C)c1 [Probucol] | > 45.8 | > 45.8 |
| CCN(CC)CCNC(=O)c1ccc(N)cc1 [Procainamide] | > 45.8 | > 45.8 |
| CNNCc1ccc(C(=O)NC(C)C)cc1 [Procarbazine hydrochloride] | > 45.8 | > 45.8 |
| CCC(NC(C)C)C(O)c1ccc(O)c2[nH]c(=O)ccc12 (stereo not drawn) [Procaterol] | > 45.8 | > 45.8 |
| OC(CCN1CCCC1)(c1ccccc1)C1CCCCC1 (stereo not drawn) [Procyclidine hydrochloride] | > 45.8 | > 45.8 |
| CCCN(CCC)C(=O)C(CCC(=O)O)NC(=O)c1ccccc1 (stereo not drawn) [Proglumide] | > 45.8 | > 45.8 |
| CC(C)NC(=N)NC(=N)Nc1ccc(Cl)cc1 [Proguanil hydrochloride] | > 45.8 | > 45.8 |
| CCCNCC(O)COc1ccccc1C(=O)CCc1ccccc1 (stereo not drawn) [Propafenone hydrochloride] | > 45.8 | > 45.8 |

| Structure (SMILES) | IC50 cell viability (ICRF193 0 nM) [µM] | IC50 cell viability (ICRF193 200 nM) [µM] |
| --- | --- | --- |
| N=C(N)c1ccc(OCCCOc2ccc(C(=N)N)cc2)cc1 [Propamidine] | > 45.8 | > 45.8 |
| CC(C)[N+](C)(CCOC(=O)C1c2ccccc2Oc2ccccc21)C(C)C [Propantheline bromide] | > 45.8 | > 45.8 |
| CCCOc1ccc(C(=O)OCCN(CC)CC)cc1N [Proparacaine] | > 45.8 | > 45.8 |
| CCCn1cnc2c1c(=O)n(CCCCC(C)=O)c(=O)n2C [Propentofylline] | > 45.8 | > 45.8 |
| CCC(Oc1ccccc1)C(=O)N[C@@H]1C(=O)N2[C@@H]1SC(C)(C)[C@@H]2C(=O)O (stereo partly drawn) [Propicillin] | > 45.8 | > 45.8 |
| CC(C)c1cccc(C(C)C)c1O [Propofol] | > 45.8 | > 45.8 |
| CCCOC(=O)c1ccccc1 [Propyl benzoate] | > 45.8 | > 45.8 |
| CCCOC(=O)c1ccc(O)cc1 [Propyl-4-hydroxybenzoate] | > 45.8 | > 45.8 |
| CNC(C)CC1CCCCC1 (stereo not drawn) [Propylhexedrine (hydrochloride)] | > 45.8 | > 45.8 |
| CCCc1cc(=O)[nH]c(=S)[nH]1 [Propylthiouracil] | > 45.8 | > 45.8 |
| Cc1c(C(C)C)c(=O)n(-c2ccccc2)n1C [Propyphenazone] | > 45.8 | > 45.8 |
| CCCc1cc(C(N)=S)ccn1 [Protionamide] | > 45.8 | > 45.8 |
| CCC(c1ccccc1)c1noc(CCN(CC)CC)n1 (stereo not drawn) [Proxazole citrate] | > 45.8 | > 45.8 |
| CC(O)Cn1cnc2c1c(=O)n(C)c(=O)n2C (stereo not drawn) [Proxyphylline] | > 45.8 | > 45.8 |
| COCCCN1CCC(NC(=O)c2cc(Cl)c(N)c3c2OCC3)CC1 [Prucalopride] | > 45.8 | > 45.8 |
| Cc1oc(=O)oc1CN1CCN(c2cc3c(cc2F)c(=O)c(C(=O)O)c2n3C(C)S2)CC1 (stereo not drawn) [Prulifloxacin] | > 45.8 | > 45.8 |
| CN1CCCN=C1/C=C/c1cccs1 [Pyrantel tartrate] | > 45.8 | > 45.8 |
| NC(=O)c1cnccn1 [Pyrazinamide] | > 45.8 | > 45.8 |
| C=CC=CCC1=C(C)C(OC(=O)C2C(C=C(C)C)C2(C)C)CC1=O (stereo not drawn) [Pyrethrin 1] | > 45.8 | > 45.8 |
| CNC(=O)OCc1cccc(COC(=O)NC)n1 [Pyricarbate] | > 45.8 | > 45.8 |
